# According to the supplement of paper PMC4862054:
# Tested on: MFM-223
# Experiment: normalised response (% of control), CellTox Green; higher = less cell death (100 = DMSO, 0 = benzethonium chloride kill control)
# Conditions: incubation time: 72 h
# Summary of the method: (§1)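 Two readouts were taken after 72 h: CellTox Green fluorescence (485/520 nm) first, then CellTiter-Glo luminescence after 10 min at room temperature. Breast cancer cell lines had been seeded as 20 µl suspension into 384-well plates holding compound at 5 concentrations in 10-fold steps across a compound-specific 10,000-fold range. Each value is a normalised signal at a single concentration, with plates scaled to 0.1 % DMSO (100) and a positive kill control (0).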
row,SMILES,normalised response [%]
1,O=C(O)C(=O)O.[NH-][C@@H]1CCCC[C@H]1[NH-].[Pt+2] [Oxaliplatin] (10000 nM),93

# Tested on: BT-474
# Experiment: normalised response (% of control), CellTiter-Glo; higher = more viable cells (100 = DMSO, 0 = benzethonium chloride kill control)
# Conditions: incubation time: 72 h
# Experimental: (§2)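 DSRT, 72 h incubation, CellTox Green / CellTiter-Glo readout. Signal is normalised to DMSO and benzethonium chloride controls. Value is the normalised response at the highest dose.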
row,SMILES,normalised response [%]
1,O=C(O)C(=O)O.[NH-][C@@H]1CCCC[C@H]1[NH-].[Pt+2] [Oxaliplatin] (10000 nM),100

# Tested on: BT-549
# Experiment: as above
# Conditions: incubation time: 72 h
# Experimental: as §2
row,SMILES,normalised response [%]
1,O=C(O)C(=O)O.[NH-][C@@H]1CCCC[C@H]1[NH-].[Pt+2] [Oxaliplatin] (10000 nM),101

# Tested on: CAL-120
# Experiment: as above
# Conditions: incubation time: 72 h
# Experimental: as §2
row,SMILES,normalised response [%]
1,O=C(O)C(=O)O.[NH-][C@@H]1CCCC[C@H]1[NH-].[Pt+2] [Oxaliplatin] (10000 nM),106

# Tested on: CAL-148
# Experiment: as above
# Conditions: incubation time: 72 h
# Experimental: as §2
row,SMILES,normalised response [%]
1,O=C(O)C(=O)O.[NH-][C@@H]1CCCC[C@H]1[NH-].[Pt+2] [Oxaliplatin] (10000 nM),85.5

# Tested on: CAL-51
# Experiment: as above
# Conditions: incubation time: 72 h
# Experimental: as §2
row,SMILES,normalised response [%]
1,O=C(O)C(=O)O.[NH-][C@@H]1CCCC[C@H]1[NH-].[Pt+2] [Oxaliplatin] (10000 nM),91.5

# Tested on: CAL-85-1
# Experiment: as above
# Conditions: incubation time: 72 h
# Experimental: as §2
row,SMILES,normalised response [%]
1,O=C(O)C(=O)O.[NH-][C@@H]1CCCC[C@H]1[NH-].[Pt+2] [Oxaliplatin] (10000 nM),102

# Tested on: DU-4475
# Experiment: as above
# Conditions: incubation time: 72 h
# Experimental: as §2
row,SMILES,normalised response [%]
1,O=C(O)C(=O)O.[NH-][C@@H]1CCCC[C@H]1[NH-].[Pt+2] [Oxaliplatin] (10000 nM),86.5

# Tested on: HCC1143
# Experiment: as above
# Conditions: incubation time: 72 h
# Experimental: as §2
row,SMILES,normalised response [%]
1,O=C(O)C(=O)O.[NH-][C@@H]1CCCC[C@H]1[NH-].[Pt+2] [Oxaliplatin] (10000 nM),99.8

# Tested on: HCC1599
# Experiment: as above
# Conditions: incubation time: 72 h
# Experimental: as §2
row,SMILES,normalised response [%]
1,O=C(O)C(=O)O.[NH-][C@@H]1CCCC[C@H]1[NH-].[Pt+2] [Oxaliplatin] (10000 nM),97.3

# Tested on: HCC1937
# Experiment: as above
# Conditions: incubation time: 72 h
# Experimental: as §2
row,SMILES,normalised response [%]
1,O=C(O)C(=O)O.[NH-][C@@H]1CCCC[C@H]1[NH-].[Pt+2] [Oxaliplatin] (10000 nM),98.4

# Tested on: HDQ-P1
# Experiment: as above
# Conditions: incubation time: 72 h
# Experimental: as §2
row,SMILES,normalised response [%]
1,O=C(O)C(=O)O.[NH-][C@@H]1CCCC[C@H]1[NH-].[Pt+2] [Oxaliplatin] (10000 nM),102

# Tested on: Hs578T
# Experiment: as above
# Conditions: incubation time: 72 h
# Experimental: as §2
row,SMILES,normalised response [%]
1,O=C(O)C(=O)O.[NH-][C@@H]1CCCC[C@H]1[NH-].[Pt+2] [Oxaliplatin] (10000 nM),97

# Tested on: MCF-10A
# Experiment: as above
# Conditions: incubation time: 72 h
# Experimental: as §2
row,SMILES,normalised response [%]
1,O=C(O)C(=O)O.[NH-][C@@H]1CCCC[C@H]1[NH-].[Pt+2] [Oxaliplatin] (10000 nM),86.4

# Tested on: MDA-MB-231
# Experiment: as above
# Conditions: incubation time: 72 h
# Experimental: as §2
row,SMILES,normalised response [%]
1,O=C(O)C(=O)O.[NH-][C@@H]1CCCC[C@H]1[NH-].[Pt+2] [Oxaliplatin] (10000 nM),91.5

# Tested on: MDA-MB-436
# Experiment: as above
# Conditions: incubation time: 72 h
# Experimental: as §2
row,SMILES,normalised response [%]
1,O=C(O)C(=O)O.[NH-][C@@H]1CCCC[C@H]1[NH-].[Pt+2] [Oxaliplatin] (10000 nM),98.4

# Tested on: MDA-MB-453
# Experiment: as above
# Conditions: incubation time: 72 h
# Experimental: as §2
row,SMILES,normalised response [%]
1,O=C(O)C(=O)O.[NH-][C@@H]1CCCC[C@H]1[NH-].[Pt+2] [Oxaliplatin] (10000 nM),89.5

# Tested on: MDA-MB-468
# Experiment: as above
# Conditions: incubation time: 72 h
# Experimental: as §2
row,SMILES,normalised response [%]
1,O=C(O)C(=O)O.[NH-][C@@H]1CCCC[C@H]1[NH-].[Pt+2] [Oxaliplatin] (10000 nM),97.2

# Tested on: MFM-223
# Experiment: as above
# Conditions: incubation time: 72 h
# Experimental: as §2
row,SMILES,normalised response [%]
1,O=C(O)C(=O)O.[NH-][C@@H]1CCCC[C@H]1[NH-].[Pt+2] [Oxaliplatin] (10000 nM),86.9

# Tested on: SK-BR-3
# Experiment: as above
# Conditions: incubation time: 72 h
# Experimental: as §2
row,SMILES,normalised response [%]
1,O=C(O)C(=O)O.[NH-][C@@H]1CCCC[C@H]1[NH-].[Pt+2] [Oxaliplatin] (10000 nM),91.9

# Tested on: BT-474
# Experiment: normalised response (% of control), CellTiter-Glo; higher = more viable cells (100 = DMSO, 0 = benzethonium chloride kill control)
# Conditions: incubation time: 72 h
# Remark: another data set of the same source
# Summary of the method: as §1
row,SMILES,normalised response [%]
1,CCN(CC)CCCC(C)Nc1c2ccc(Cl)cc2nc2ccc(OC)cc12 (stereo not drawn) [Mepacrine] (500 nM),98.9
2,C=CC(=O)Nc1cc2c(Nc3ccc(F)c(Cl)c3)ncnc2cc1OCCCN1CCOCC1 [Canertinib] (100 nM),95.3
3,Cc1ccc(-c2cc(C(F)(F)F)nn2-c2ccc(S(N)(=O)=O)cc2)cc1 [Celecoxib] (100 nM),99
4,C=CCc1cccc(/C=N/NC(=O)CN2CCN(Cc3ccccc3)CC2)c1O [PAC-1] (100 nM),102

# Tested on: BT-549
# Experiment: as above
# Conditions: incubation time: 72 h
# Remark: another data set of the same source
# Summary of the method: as §1
row,SMILES,normalised response [%]
1,CCN(CC)CCCC(C)Nc1c2ccc(Cl)cc2nc2ccc(OC)cc12 (stereo not drawn) [Mepacrine] (500 nM),113
2,C=CC(=O)Nc1cc2c(Nc3ccc(F)c(Cl)c3)ncnc2cc1OCCCN1CCOCC1 [Canertinib] (100 nM),93.9
3,Cc1ccc(-c2cc(C(F)(F)F)nn2-c2ccc(S(N)(=O)=O)cc2)cc1 [Celecoxib] (100 nM),100
4,C=CCc1cccc(/C=N/NC(=O)CN2CCN(Cc3ccccc3)CC2)c1O [PAC-1] (100 nM),104

# Tested on: CAL-120
# Experiment: as above
# Conditions: incubation time: 72 h
# Remark: another data set of the same source
# Summary of the method: as §1
row,SMILES,normalised response [%]
1,CCN(CC)CCCC(C)Nc1c2ccc(Cl)cc2nc2ccc(OC)cc12 (stereo not drawn) [Mepacrine] (500 nM),44.1
2,C=CC(=O)Nc1cc2c(Nc3ccc(F)c(Cl)c3)ncnc2cc1OCCCN1CCOCC1 [Canertinib] (100 nM),99.5
3,Cc1ccc(-c2cc(C(F)(F)F)nn2-c2ccc(S(N)(=O)=O)cc2)cc1 [Celecoxib] (100 nM),103
4,C=CCc1cccc(/C=N/NC(=O)CN2CCN(Cc3ccccc3)CC2)c1O [PAC-1] (100 nM),103

# Tested on: CAL-148
# Experiment: as above
# Conditions: incubation time: 72 h
# Remark: another data set of the same source
# Summary of the method: as §1
row,SMILES,normalised response [%]
1,CCN(CC)CCCC(C)Nc1c2ccc(Cl)cc2nc2ccc(OC)cc12 (stereo not drawn) [Mepacrine] (500 nM),86.1
2,C=CC(=O)Nc1cc2c(Nc3ccc(F)c(Cl)c3)ncnc2cc1OCCCN1CCOCC1 [Canertinib] (100 nM),97.5
3,Cc1ccc(-c2cc(C(F)(F)F)nn2-c2ccc(S(N)(=O)=O)cc2)cc1 [Celecoxib] (100 nM),95.4
4,C=CCc1cccc(/C=N/NC(=O)CN2CCN(Cc3ccccc3)CC2)c1O [PAC-1] (100 nM),103

# Tested on: CAL-51
# Experiment: as above
# Conditions: incubation time: 72 h
# Remark: another data set of the same source
# Summary of the method: as §1
row,SMILES,normalised response [%]
1,CCN(CC)CCCC(C)Nc1c2ccc(Cl)cc2nc2ccc(OC)cc12 (stereo not drawn) [Mepacrine] (500 nM),64
2,C=CC(=O)Nc1cc2c(Nc3ccc(F)c(Cl)c3)ncnc2cc1OCCCN1CCOCC1 [Canertinib] (100 nM),60.2
3,Cc1ccc(-c2cc(C(F)(F)F)nn2-c2ccc(S(N)(=O)=O)cc2)cc1 [Celecoxib] (100 nM),110
4,C=CCc1cccc(/C=N/NC(=O)CN2CCN(Cc3ccccc3)CC2)c1O [PAC-1] (100 nM),91.8

# Tested on: CAL-85-1
# Experiment: as above
# Conditions: incubation time: 72 h
# Remark: another data set of the same source
# Summary of the method: as §1
row,SMILES,normalised response [%]
1,CCN(CC)CCCC(C)Nc1c2ccc(Cl)cc2nc2ccc(OC)cc12 (stereo not drawn) [Mepacrine] (500 nM),103
2,C=CC(=O)Nc1cc2c(Nc3ccc(F)c(Cl)c3)ncnc2cc1OCCCN1CCOCC1 [Canertinib] (100 nM),69.1
3,Cc1ccc(-c2cc(C(F)(F)F)nn2-c2ccc(S(N)(=O)=O)cc2)cc1 [Celecoxib] (100 nM),97.6
4,C=CCc1cccc(/C=N/NC(=O)CN2CCN(Cc3ccccc3)CC2)c1O [PAC-1] (100 nM),103

# Tested on: DU-4475
# Experiment: as above
# Conditions: incubation time: 72 h
# Remark: another data set of the same source
# Summary of the method: as §1
row,SMILES,normalised response [%]
1,CCN(CC)CCCC(C)Nc1c2ccc(Cl)cc2nc2ccc(OC)cc12 (stereo not drawn) [Mepacrine] (500 nM),99.8
2,C=CC(=O)Nc1cc2c(Nc3ccc(F)c(Cl)c3)ncnc2cc1OCCCN1CCOCC1 [Canertinib] (100 nM),102
3,Cc1ccc(-c2cc(C(F)(F)F)nn2-c2ccc(S(N)(=O)=O)cc2)cc1 [Celecoxib] (100 nM),103
4,C=CCc1cccc(/C=N/NC(=O)CN2CCN(Cc3ccccc3)CC2)c1O [PAC-1] (100 nM),105
